Data published in PMC12782889, “A GmNRF5a–GmCERK1–GmCAK1 module mediates chitin/chitosan‐triggered immune response in soybean” (Journal of Integrative Plant Biology, 2025).

Assays:
GmCERK1^ECDY109R = experiment: MST binding to GmCERK1^ECD mutant Y109R; parameters: species or system soybean (Glycine max); details: ligand dp6
Source text: (§1) The ectodomains of GmCERK1, GmNFR5a, and mutants were cloned into the yeast expression vector pPICZαA (Thermo Fisher Scientific, Shanghai, China) through the double digestion and ligation using the restriction endonuclease EcoRI/XbaI (NEB, Suzhou, China) and T4 ligase. Then, the linearized recombinant plasmid pPICZαA‐GmCERK1 and pPICZαA‐GmNFR5a were transformed into P. pastoris X‐33. The positive colonies were selected on YPDS medium (1% w/v yeast extract, 2% w/v peptone, 2% w/v glucose, 2% w/v agar, 100 μg/mL antibiotic Zeocin (Thermo Fisher Scientific)) plates and verified by direct DNA sequencing. Protein expression was carried out initially in BMGY media (100 mM potassium phosphate pH 6.0, 1.34% w/v YNB, 4 × 10^−5% w/v biotin, 1% v/v glycerol) at 28°C with shaking (180 rpm) until the OD600 reached 2.0–6.0. The cell pellet was transferred into BMMY medium (100 mM potassium phosphate pH 6.0, 1.34% w/v YNB, 4 × 10^−5% w/v biotin, 0.5% v/v methanol) and continuously supplied with the addition of 0.5% (v/v) methanol every day for 5 d. […]
(§2) GmCERK1^ECD, GmNFR5a^ECD, and all mutants were labeled with a fluorescent dye using the Monolith Protein Labeling Kit RED‐NHS second Generation (MO‐L011). […] The data were analyzed and fitted by plotting ligand concentrations against bound fractions using the MO.Affinity Analysis v3.0.5 software. […]

GmCERK1^ECDI137R = experiment: MST binding to GmCERK1^ECD mutant I137R; parameters: species or system soybean (Glycine max); details: ligand dp6
Source text: as §1, §2

[1] = system: phosphorylated MPK6/3/4 (P42/44) in soybean leaf discs; experiment: MAPK phosphorylation immunoblot in soybean leaf discs; assay type: cell-based, soybean (Glycine max); details: soybean leaf discs at 5 min; anti-phospho P42/44 immunoblot; vs control dH2O
Description: (§3) To measure the oxidation burst, leaf discs (Ø 0.5 cm) collected from 2-week-old soybean (cultivar Williams) were floated overnight in 200 μL sterile H2O in a 96-well plate. The H2O was replaced with 200 μL reaction buffer containing luminol/peroxidase ([…] luminol, 10 mg/mL peroxidase) and chitooligosaccharides treatments (50 mg/L). flg22 was used as a positive control. The luminescence was measured using a GLOMAX96 microplate luminometer (Promega, Madison, WI, USA). The experiments for MAPK activation were carried out as described previously ([[…] et al., 2014]). The MAPK activation was determined by immunoblots with anti-phospho-p44/42 MAPK antibody (#4370; Cell Signaling, Boston, MA, USA).

Phytophthora sojae P6497 = experiment: P. sojae infection of pretreated soybean etiolated hypocotyls; assay type: in vivo, Phytophthora sojae on soybean (Glycine max); details: for biomass of P. sojae: dp6, 50 mg/L, 24 h before inoculation with zoospores, etiolated hypocotyls, 48 hpi, genomic DNA qPCR, vs mock dH2O
Description: For soybean etiolated hypocotyls inoculation assays, etiolated hypocotyls of soybean (cultivar Williams) were inoculated with P. sojae zoospore suspensions (100 zoospores). Infected etiolated hypocotyls were maintained at 25°C in the dark for 2 d, photographed and collected for biomass detection. For soybean hairy‐root inoculation assays, transgenic hairy roots were soaked in CTOS/CSOS (50 mg/L) or mock (dH2O) for 12 h and then were infected with red fluorescent protein (RFP)‐labeled P. sojae strain P6497, and fluorescence was visualized in the infected area of soybean hairy root and the biomass of P. sojae was determined by qRT‐PCR at 48 hpi.

GmCERK1 homodimer = experiment: Co-immunoprecipitation of GmCERK1-GFP with GmCERK1-HA in N. benthamiana; assay type: cell-based, soybean (Glycine max); details: Co-IP; N. benthamiana leaves treated 50 mg/L for 5 min
Description: (§4) Nicotiana benthamiana leaves were harvested 48 h post inoculation (hpi) after agroinfiltration. Samples were ground in liquid nitrogen and incubated for 30 min in a lysis buffer (50 mM Tris-HCl pH 8.0, 150 mM NaCl, 1.0% (v/v) NP-40, 0.1% SDS (w/v) and 0.1% protease inhibitor cocktail ([…]; Sigma, St. Louis, MI, USA)). Supernatant was collected by centrifugation at 21,000 g for 15 min and then incubated with GFP-trap beads (item No.: gta-20; Chromotek, Hauppauge, NY, USA) at 4°C for 2 h. The GFP-trap beads were pelleted by centrifugation at 500 g for 2 min and washed with lysis buffer at least four times. Proteins were eluted by boiling the beads in a protein loading buffer for 10 min and detected by immunoblot analysis with anti-GFP (Cat No. M20004; Abmart, Shanghai, China) or anti-HA (Cat No. M20013; Abmart, Shanghai, China).

GmNFR5a homodimer = experiment: Co-immunoprecipitation of GFP-tagged GmNFR5a with HA-tagged GmNFR5a in N. benthamiana; assay type: cell-based, soybean (Glycine max); details: Co-IP; N. benthamiana leaves treated 50 mg/L for 5 min
Description: as §4

[2] = system: soybean leaf discs (ROS burst); experiment: Luminol-based ROS burst assay in soybean leaf discs; assay type: cell-based, soybean (Glycine max); details: 50 mg/L, leaf discs of soybean Williams, dH2O negative control
Description: as §3

SMILES	interaction with GmCERK1^ECDY109R (GmCERK1^ECDY109R)	interaction with GmCERK1^ECDI137R (GmCERK1^ECDI137R)	MAPK phosphorylation [1]	biomass of P. sojae (Phytophthora sojae P6497)	plant resistance elicited, compared with CTOS (Phytophthora sojae P6497; soybean etiolated hypocotyls, P. sojae (Figure 1E, F))	GmCERK1-GFP / GmCERK1-HA interaction (homodimer) (GmCERK1 homodimer)	GmNFR5a homodimer formation (GmNFR5a homodimer)	ROS burst [2]
N[C@H]1[C@H](O[C@H]2[C@H](O)[C@@H](N)[C@H](O[C@H]3[C@H](O)[C@@H](N)[C@H](O[C@H]4[C@H](O)[C@@H](N)[C@H](O[C@H]5[C@H](O)[C@@H](N)[C@H](O[C@H]6[C@H](O)[C@@H](N)C(O)O[C@@H]6CO)O[C@@H]5CO)O[C@@H]4CO)O[C@@H]3CO)O[C@@H]2CO)O[C@H](CO)[C@@H](O)[C@@H]1O (some centres unmarked) [CSOS (dp6), chitosan oligosaccharide]	cannot interact	cannot interact	can induce MAPK activity	significantly lower	somewhat weaker	strong interaction	strong homodimer	
CC(=O)N[C@H]1[C@H](O[C@H]2[C@H](O)[C@@H](NC(C)=O)[C@H](O[C@H]3[C@H](O)[C@@H](NC(C)=O)C(O)O[C@@H]3CO)O[C@@H]2CO)O[C@H](CO)[C@@H](O[C@@H]2O[C@H](CO)[C@@H](O[C@@H]3O[C@H](CO)[C@@H](O[C@@H]4O[C@H](CO)[C@@H](O)[C@H](O)[C@H]4NC(C)=O)[C@H](O)[C@H]3NC(C)=O)[C@H](O)[C@H]2NC(C)=O)[C@@H]1O (some centres unmarked) [CTOS (dp6), chitin oligosaccharide]				significantly lower		strong interaction	strong homodimer	stronger ROS burst than that of CTOS (dp4)
